Results published in article PMC5142287, “Weight control interventions improve therapeutic efficacy of dacarbazine in melanoma by reversing obesity-induced drug resistance” (Cancer & Metabolism, 2016).

How the values were obtained:
[1] = system: B16F10 melanoma; test: B16F10 melanoma isograft in HFD (obese) C57BL/6J mice: tumor growth and survival; format: in vivo
Description: (§1) To study the impact of diet-induced obesity on the outcome of DTIC therapy in melanoma, we treated B16F10 melanoma isografted obese mice with DTIC purchased from Sigma, USA (80 mg/kg intraperitoneally for five consecutive days as described previously). In addition, to look into the impact of weight loss interventions on the outcome of DTIC therapy in obese mice, mice were administered with orlistat (an antiobesity drug known to inhibit gastrointestinal lipases) and/or shifted from high fat to normal diet followed by DTIC treatment. The detailed experimental plan is illustrated in Fig. 1a. Briefly, obese mice were administered orally with orlistat (10 mg/kg on every alternate day) purchased from Enzo Life Sciences, NY, USA, and/or shifted from high fat diet to normal diet. HFD C57BL/6J mice treated with vehicle or orlistat were termed as HFD-HFD Ctrl and HFD-HFD Orli (N = 11 per each group), respectively, whereas HFD C57BL/6J mice shifted to normal diet and treated with vehicle or orlistat were grouped as HFD-ND Ctrl and HFD-ND Orli (N = 11 per each group), respectively. After 15 days, these mice were injected subcutaneously (s.c.) with B16F10 cells (2 × 10^5) in 100 μl of PBS and monitored daily for the presence of palpable tumors and dimensions were recorded on alternate days. […] Tumor volume was calculated using the formula 0.52 × length × width^2 and was followed up throughout the study.

[2] = system: FASN, P-gp, Cav-1, pAkt, PCNA, and cyclin D1; test: Western blot of tumor lysates of B16F10-isografted mice; format: in vivo, C57BL/6J mice
Description: Melanoma tumor samples or cells were washed three to five times with ice-cold PBS and lysed in ice-cold RIPA lysis buffer as described previously. Briefly, the samples were centrifuged at 12000 RPM for 40 min and clear supernatants were stored at −80 °C. Protein concentrations were determined by Coomassie Plus Protein Assay Reagent (Thermo Scientific, IL, USA). Equal amounts of protein samples (50–100 μg) were resolved on 8–10% SDS-polyacrylamide gel and then transferred onto PVDF membrane (Millipore, MA, USA). […] After washing, the membranes were incubated with HRP-conjugated secondary antibodies (1:2000) and blots were developed using luminescence detection reagents (Santa Cruz Biotechnology, CA, USA).

[3] = system: B16F1 cells; test: Long-term survival assay, B16F1 cells in serum from experimental mice; format: cell-based, Murine
Excerpt: Additional file 1: Table S1. Composition of diets used in the study. Normal diet (ND) was procured from Amrut Laboratory Animal Feed, Pune, India, and high fat diet (HFD) was purchased from Provimi Animal Nutrition Pvt. Ltd., Bangalore, India. *, HFD was also supplemented with 400 g groundnut and 200 g dried coconut per kg body weight of mice. […] Obesity-associated parameters in the experimental ND mice recorded at the end of the experiment. ND male C57BL/6J mice were divided into two major groups. One group was orally treated with orlistat every alternate day before inoculating with B16F10 cells. The second group was orally given vehicle control on every alternate day for 8 weeks. Mice from both the groups (N = 11 per each group) were injected (s.c.) with B16F10 cells (2 × 10^5 cells/mouse in 100 μl PBS). Their body weight was monitored weekly throughout the study, and serum was collected at the end of the experiment. Blood glucose, serum TG, serum cholesterol, serum-free fatty acids, and serum LDLc were measured. Serum factors including leptin, adiponectin, insulin, resistin, IL-6, and TNF-α were estimated by ELISA. […] Effect of obesity-associated serum factors on the protein level of P-gp, Cav-1, and FASN in B16F1 cells. […] The data were recorded using Zeiss LSM510 META Confocal Microscope. […] Data were acquired on FACS Calibur and analyzed using BD CellQuest Pro software. […]

[4] = Obesity-associated factors in B16F10-isografted HFD C57BL/6J mice (body weight, blood glucose, serum lipids, ELISA); format: in vivo; details: end of experiment, mean ± SD
Excerpt: C57BL/6J mice were procured from Experimental Animal Facility (EAF) at National Centre for Cell Science (NCCS), Pune, India. High fat diet (24% fat) was purchased from Provimi Animal Nutrition Pvt. Ltd., Bangalore, India, and normal diet (5% fat) was obtained from Amrut Laboratory, Pune, India. The compositions of diets are provided in supplementary data (Additional file 1: Table S1). Diet-induced obesity was developed in the mice by feeding them with high fat diet as described previously. Male C57BL/6J mice (6–8 weeks old) were divided into normal diet (ND) and high fat diet (HFD) group. ND group was fed with normal diet while HFD group was fed with high fat diet supplemented with ground nut and dried coconut for 6 months. Body weight and serum chemistry profile were measured monthly to verify obesity-associated changes. Water and food were provided ad libitum to all the mice. All animal experiments were carried out as per the requirement and guidelines of the Committee for the Purpose of Control and Supervision of Experiments on Animals (CPCSEA), Government of India, and after obtaining permission of the Institutional Animal Ethics Committee (IAEC).
Blood glucose levels and serum lipids were estimated as described previously. Insulin, leptin, and adiponectin levels in the serum were estimated by mouse-specific respective ELISA kits as described. Resistin, IL-6, and TNF-α levels in the serum were detected by indirect ELISA as described previously.
as §1

[5] = system: B16F10 cells; test: Long-term survival assay, B16F10 cells in CM from 3T3-L1 cells; format: cell-based, Murine
Description: 3T3-L1 cells were plated in 35-mm dishes and differentiated as described, along with vehicle or orlistat treatment (50 μM).

SMILES: CN(C)/N=N/c1[nH]cnc1C(N)=O [DTIC, Dacarbazine]
- Survivability of tumor-bearing mice ([1]; HFD mice): 60 days
- Survival of tumor-bearing mice ([1]; HFD mice): reduced
- Survivability increase ([1]; tumor-bearing HFD mice under weight control by orlistat treatment or diet shifting, DTIC therapy): 40%
- Level of P-gp in tumors ([2]; HFD mice): further increased
- Protein levels of cyclin D1 and PCNA in tumors ([2]; HFD mice): increase
- Cav-1 levels in tumors ([2]; HFD mice treated with DTIC): elevated
- FASN level in tumors ([2]; HFD mice treated with DTIC): further increased
- Level of P-gp in tumors ([2]; ND mice): reduced
- Protein levels of cyclin D1 and PCNA in tumors ([2]; ND mice): reduced levels
- FASN and Cav-1 level in tumors ([2]; ND mice treated with DTIC): much lower
- Increase of sensitivity to DTIC ([3]; HFD serum, FASN, Cav-1 and P-gp simultaneously inhibited): approximately 80%
- Reduction of cell survival ([3]; serum from orlistat-treated or diet-shifted obese mice, DTIC at 1415 μM): ~75%
- Body weight ([4]; HFD-HFD (continued on HFD), orlistat 10 mg/kg oral alternate days, DTIC 80 mg/kg i.p. 5 days): 32.28 ± 1.70 (p = 0.999) g
- Blood glucose ([4]; HFD-HFD): 194.50 ± 6.98 (p = 0.9997) mg/dl
- Serum IL-6 ([4]; HFD-HFD): 44.99 ± 1.58 (p = 0.9999) pg/ml
- Serum LDLc ([4]; HFD-HFD): 85.01 ± 1.17 (p = 0.9999) mg/dl
- Serum TG ([4]; HFD-HFD): 84.17 ± 1.15 (p = 0.9999) mg/dl
- Serum TNF-α ([4]; HFD-HFD): 28.67 ± 0.99 (p = 0.9708) pg/ml
- Serum adiponectin ([4]; HFD-HFD): 3421 ± 198 (p = 0.9999) ng/ml
- Serum cholesterol ([4]; HFD-HFD): 120.54 ± 4.49 (p = 0.9995) mg/dl
- Serum free fatty acids ([4]; HFD-HFD): 2.20 ± 0.04 (p = 0.9993) mM/l
- Serum insulin ([4]; HFD-HFD): 0.385 ± 0.016 (p = 0.8701) μg/l
- Serum leptin ([4]; HFD-HFD): 43.11 ± 1.65 (p = 0.9999) ng/ml
- Serum resistin ([4]; HFD-HFD): 2.23 ± 0.11 (p = 0.9999) ng/ml
- Blood glucose ([4]; HFD-ND): 177.5 ± 5.05 (p = 0.0001) mg/dl
- Serum IL-6 ([4]; HFD-ND): 35.59 ± 2.38 (p < 0.0001) pg/ml
- Serum TG ([4]; HFD-ND): 69.15 ± 2.41 (p < 0.0001) mg/dl
- Serum TNF-α ([4]; HFD-ND): 16.17 ± 1.91 (p < 0.0001) pg/ml
- Serum adiponectin ([4]; HFD-ND): 5133 ± 228 (p < 0.0001) ng/ml
- Serum free fatty acids ([4]; HFD-ND): 1.81 ± 0.05 (p < 0.0001) mM/l
- Serum insulin ([4]; HFD-ND): 0.301 ± 0.02 (p < 0.0001) μg/l
- Serum leptin ([4]; HFD-ND): 34.54 ± 2.3 (p < 0.0001) ng/ml
- Serum resistin ([4]; HFD-ND): 1.82 ± 0.10 (p < 0.0001) ng/ml
- Effect on survival ([5]; CM from differentiated ID adipocytes): did not remarkably affect
- Improvement of sensitivity to DTIC ([5]; CM from differentiated adipocytes, simultaneous treatment with all three inhibitors (FASN, Cav-1, P-gp)): approximately 80%
- Survival remaining ([5]; CM from orlistat-treated differentiating adipocytes, DTIC at 649 μM): approximately 30%
